Some test systems named below: DMS 273 small cell lung; SNB-19 CNS; U251 CNS; DMS 114 small cell lung; KM20L2 colon; XF 498 CNS; LXFL 529 NSCLC; OVCAR-8 ovarian; M19-MEL melanoma; SNB-78 CNS; HOP-18 NSCLC; A549 NSCLC; SK-OV-3 ovarian; SF-539 CNS; NCI/ADR-RES ovarian; CCRF-CEM leukemia; P388 leukemia.
Common to all, as to assay: NCI tumour cell line growth inhibition, 48 h

Several values for one entry are separate records, joined by “and”; a condition that tells them apart may be missing. Identical values can stand only once.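 All cell lines were grown in 96-well plates and treated with compound for 48 hours. GI50 is the concentration that inhibits growth by half. TGI is the concentration that stops growth completely.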 Where only a bound is given, the exact number is not on record here.

With `O=C(c1ccccc1)[C@H]1Nc2ccc(Cl)cc2[C@H]2OCCC[C@@H]12`, the TGI is 39 µM in the assay on DMS 273 small cell lung; 90.3 µM in the assay on SNB-19 CNS; 31.7 µM in the assay on U251 CNS; 37.1 µM with DMS 114 small cell lung; 39.4 µM with KM20L2 colon; 33.6 µM in the assay with XF 498 CNS. Further, the TGI with LXFL 529 NSCLC turned out to be 33.5 µM; with OVCAR-8 ovarian it was 41.9 µM; in the assay with M19-MEL melanoma, 49.1 µM; with SNB-78 CNS, 72.1 µM; with HOP-18 NSCLC it was 55.7 µM.

Regarding `CS/C(=N\C(=S)Nc1ccccc1)Nc1ccccc1`, the TGI in the assay on A549 NSCLC is 59.2 µM; with SNB-19 CNS it was 94.6 µM; in the assay with U251 CNS, above 100 µM; in the assay on DMS 114 small cell lung it was 52.6 µM; in the assay with KM20L2 colon it was above 100 µM; in the assay on OVCAR-8 ovarian it was 77.4 µM. Moreover, the TGI in the assay on M19-MEL melanoma was 81 µM; in the assay on SK-OV-3 ovarian, 58.9 µM; in the assay with SNB-78 CNS, above 100 µM.

Regarding `NC(=O)NO`, the TGI is 2340 µM with A549 NSCLC; 1360 µM with DMS 273 small cell lung; above 2340 µM with SNB-19 CNS; 2330 µM with U251 CNS; 1440 µM in the assay with SF-539 CNS; 2400 µM in the assay on NCI/ADR-RES ovarian. Moreover, the TGI with KM20L2 colon is 1700 µM; with XF 498 CNS, 1850 µM; in the assay on LXFL 529 NSCLC, above 2320 µM; in the assay on OVCAR-8 ovarian, above 2460 µM; in the assay on M19-MEL melanoma, above 2450 µM; with SK-OV-3 ovarian, above 2500 µM. The TGI was 1060 µM in the assay on CCRF-CEM leukemia, above 2500 µM with SNB-78 CNS, 1940 µM in the assay on HOP-18 NSCLC and 548 µM with P388 leukemia. The GI50 in the assay with HOP-18 NSCLC is 1.13 mM.

Consider `CC(=O)Oc1ccc2c(C)cc(=O)oc2c1`, for which the TGI in the assay with A549 NSCLC, in the assay with SNB-19 CNS, in the assay with U251 CNS, with SF-539 CNS, in the assay on NCI/ADR-RES ovarian and in the assay on OVCAR-8 ovarian was above 100 µM each time. In addition, the TGI with SK-OV-3 ovarian and in the assay on CCRF-CEM leukemia was above 100 µM throughout.

Take `COc1cc2nc(-c3cccs3)nc(N3C(c4ccc(O)cc4)=NNC(=O)c4ccccc43)c2cc1OC`: the TGI in the assay on A549 NSCLC is above 100 µM; in the assay on SNB-19 CNS, above 100 µM; with U251 CNS, 75.9 µM; in the assay on SF-539 CNS, 23.6 µM; in the assay with NCI/ADR-RES ovarian, 44.3 µM; in the assay on OVCAR-8 ovarian it was above 100 µM. For the same molecule, the TGI in the assay with SK-OV-3 ovarian and with CCRF-CEM leukemia was above 100 µM in each case.

For the molecule `CCCCNc1c(CN)cnc2cc(Cl)ccc12`, the TGI with A549 NSCLC amounted to 41.5 µM; in the assay with SNB-19 CNS, 51 µM; in the assay on U251 CNS, 30.4 µM; in the assay on NCI/ADR-RES ovarian it was 32 µM; with OVCAR-8 ovarian, 33.8 µM; with SK-OV-3 ovarian it was 31.6 µM. For the same molecule, the TGI with CCRF-CEM leukemia came out at 18.7 µM.

Consider `N=C(N)C(N=Nc1ccccc1)C(N)=O` (centres undefined), for which the TGI with A549 NSCLC, with SNB-19 CNS, with U251 CNS, in the assay on NCI/ADR-RES ovarian, in the assay on OVCAR-8 ovarian and in the assay with SK-OV-3 ovarian was above 100 µM each time.

On to `CN(C)CCCNc1ncnc2nc[nH]c12`, for which the TGI in the assay on A549 NSCLC, in the assay with SNB-19 CNS, with U251 CNS, with NCI/ADR-RES ovarian, with OVCAR-8 ovarian and in the assay with SK-OV-3 ovarian was above 100 µM throughout. Also, the TGI with CCRF-CEM leukemia was above 100 µM.

For `C=CCOC1OC(CS(=O)(=O)O)C(O)C(O)C1O` (centres undefined), the TGI with SNB-19 CNS, with U251 CNS, with NCI/ADR-RES ovarian, in the assay on OVCAR-8 ovarian and in the assay on SK-OV-3 ovarian was above 100 µM in each case.

Consider `Cc1ccc2cc3c(ccc4ccccc43)c3c2c1CC3`, for which the TGI in the assay on A549 NSCLC, in the assay on SNB-19 CNS, with U251 CNS, in the assay with SF-539 CNS, in the assay with NCI/ADR-RES ovarian and with OVCAR-8 ovarian was above 100 µM each time. Besides, the TGI in the assay with SK-OV-3 ovarian and with CCRF-CEM leukemia was above 100 µM each time.

On to `O=C(O)C(O)Cc1ccccn1` (centres undefined), for which the TGI in the assay on A549 NSCLC, in the assay with SNB-19 CNS, with U251 CNS, in the assay on NCI/ADR-RES ovarian, with OVCAR-8 ovarian and in the assay with SK-OV-3 ovarian was above 100 µM each time. Also, in the assay with CCRF-CEM leukemia, the TGI is above 100 µM.

As for `COc1ccc(C2C(=O)C(Cl)N2Nc2nc(C)cc(=O)[nH]2)cc1OC` (centres undefined), the TGI with A549 NSCLC was above 100 µM; with DMS 273 small cell lung it was 84.3 µM; with SNB-19 CNS, above 100 µM; in the assay on U251 CNS it was above 100 µM; with SF-539 CNS, 85.5 µM; in the assay with KM20L2 colon it was above 100 µM. The TGI was above 100 µM in the assay with LXFL 529 NSCLC; above 100 µM with OVCAR-8 ovarian; above 100 µM in the assay with M19-MEL melanoma; 55.1 µM in the assay with CCRF-CEM leukemia; above 100 µM with SNB-78 CNS; 53.7 µM in the assay on HOP-18 NSCLC.

With `O=C(O)CSCC(=O)O`, the TGI with A549 NSCLC, in the assay with SNB-19 CNS, with U251 CNS, with NCI/ADR-RES ovarian, with OVCAR-8 ovarian and in the assay on CCRF-CEM leukemia was above 100 µM in each case.

Turning to `Nc1ccc2nc3ccc(N)cc3[n+](-c3ccccc3)c2c1`, the TGI in the assay on A549 NSCLC, with SNB-19 CNS, in the assay on U251 CNS, with SF-539 CNS, with NCI/ADR-RES ovarian and in the assay with SK-OV-3 ovarian was above 100 µM throughout. Besides, in the assay on CCRF-CEM leukemia, the TGI is above 100 µM.

On to `c1ccc(C(c2ccccc2)[P+](c2ccccc2)(c2ccccc2)c2ccccc2)cc1`, for which the TGI was determined as 14.6 µM in the assay on A549 NSCLC; 2.17 µM in the assay on DMS 273 small cell lung; 10 µM in the assay with SNB-19 CNS; 12.1 µM in the assay on U251 CNS; 6.31 µM in the assay with SF-539 CNS; 2.73 µM in the assay with DMS 114 small cell lung. Moreover, the TGI with NCI/ADR-RES ovarian is above 100 µM; in the assay with KM20L2 colon, 11.8 µM; with XF 498 CNS, 0.737 µM; in the assay with OVCAR-8 ovarian, 13.5 µM; with M19-MEL melanoma it was 9.69 µM; in the assay on SK-OV-3 ovarian, 2.68 µM. The TGI in the assay on CCRF-CEM leukemia was determined as 14.6 µM; in the assay with SNB-78 CNS, 12.9 µM; with HOP-18 NSCLC, 2.74 µM; in the assay with P388 leukemia, 1.89 µM.

On to `Nc1ccc(C2NC(=O)Cc3c2ccc2ccccc32)cc1` (centres undefined), for which the TGI in the assay on A549 NSCLC, in the assay on SNB-19 CNS, in the assay with U251 CNS, in the assay on SF-539 CNS, with OVCAR-8 ovarian and in the assay with SK-OV-3 ovarian was above 100 µM throughout. The TGI with CCRF-CEM leukemia was above 100 µM.

As for `C=C[C@H]1CC[C@H]2[C@@H]3CC=C4C[C@@H](OC5OCC(O)C(O)C5O)CC[C@]4(C)[C@H]3CC[C@]12C` (some centres undefined), the TGI was 27.5 µM with A549 NSCLC; 65.9 µM with SNB-19 CNS; 30.5 µM in the assay with U251 CNS; 28.6 µM in the assay on SF-539 CNS; 38.1 µM in the assay on NCI/ADR-RES ovarian; 33.5 µM in the assay on OVCAR-8 ovarian. Besides, the TGI is 28.5 µM in the assay on SK-OV-3 ovarian and above 100 µM in the assay with CCRF-CEM leukemia.

`COc1ccccc1N1C(Cl)C(=O)C1c1c[nH]c2ccccc12` (centres undefined): the TGI in the assay with A549 NSCLC, with SNB-19 CNS, in the assay on U251 CNS, in the assay with SF-539 CNS, with DMS 114 small cell lung and with KM20L2 colon was above 100 µM throughout. For the same molecule, the TGI with XF 498 CNS, with LXFL 529 NSCLC, in the assay with OVCAR-8 ovarian, in the assay with M19-MEL melanoma, in the assay on SK-OV-3 ovarian and in the assay with CCRF-CEM leukemia was above 100 µM each time.

As to `CCCCCCCCCCCCCCCC[N+](C)(C)CCN(Cc1ccc(OC)cc1)c1ncccn1`, in the assay on NCI/ADR-RES ovarian, the GI50 is 18.7 µM and 3.94 µM; the TGI was 64 µM and > 100 µM. Moreover, in the assay with SK-OV-3 ovarian, the GI50 was 2240 nM and the TGI came out at 7.24 µM.

For the molecule `FC(F)(F)C(C1=NC(C(F)(F)F)(C(F)(F)F)N=C(N2CCOCC2)O1)C(F)(F)F`, the TGI with A549 NSCLC was 62.8 µM; in the assay on SNB-19 CNS it was above 100 µM; in the assay with U251 CNS, above 100 µM; in the assay on SF-539 CNS it was 97.3 µM; in the assay with NCI/ADR-RES ovarian, 49.4 µM; with OVCAR-8 ovarian, 47.3 µM. The TGI with SK-OV-3 ovarian was above 100 µM; with CCRF-CEM leukemia, 25.3 µM.

Consider `COc1cc(-c2c(C#N)c(N)c(C#N)c3c2COc2ccccc2-3)cc(OC)c1OC`, for which the TGI in the assay on A549 NSCLC was above 100 µM; with SNB-19 CNS, above 43.5 µM; in the assay on U251 CNS, 34.4 µM; with SF-539 CNS it was 19.9 µM; with NCI/ADR-RES ovarian it was above 100 µM; with OVCAR-8 ovarian, 97.6 µM. Moreover, the results for the TGI in the assay with SK-OV-3 ovarian and in the assay with CCRF-CEM leukemia were 32.4 µM and above 100 µM, respectively.

As to `Cc1nc(Nc2ccc(F)cc2)c2sc(=S)n(-c3ccc(F)cc3)c2n1`, the TGI in the assay with A549 NSCLC stood at 29.5 µM; in the assay with SNB-19 CNS, 27.8 µM; in the assay on U251 CNS it was 27.8 µM; in the assay on NCI/ADR-RES ovarian, 37.3 µM; with OVCAR-8 ovarian, 35.9 µM; in the assay on SK-OV-3 ovarian it was 40.2 µM.

On to `COc1ccc2oc(=O)cc(C)c2c1`, for which the TGI in the assay with A549 NSCLC, with SNB-19 CNS, in the assay with U251 CNS, with SF-539 CNS, with NCI/ADR-RES ovarian and with OVCAR-8 ovarian was above 100 µM each time. The same molecule showed a TGI in the assay with CCRF-CEM leukemia above 100 µM.

The values are drawn from PubChem BioAssay (NCI).
